The text below walks through data of ChEMBL document CHEMBL1152578, “Inhibition of ribonuclease A by nucleoside-dibasic acid conjugates” (Bioorg Med Chem, 2009).

pKi: −log10 of the molar value. The source made the active and inactive calls. The calls are words filed in the database; no cut-off is given here.

One assay addresses T1, Ribonuclease pancreatic (Homo sapiens, UniProt P07998).
T1 sequence (P07998 whole entry): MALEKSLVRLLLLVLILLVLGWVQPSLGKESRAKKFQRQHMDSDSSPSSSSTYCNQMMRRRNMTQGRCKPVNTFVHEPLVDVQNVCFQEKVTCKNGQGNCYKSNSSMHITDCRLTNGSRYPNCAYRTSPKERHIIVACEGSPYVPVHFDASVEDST
Description: Inhibition of RNase A using dixon plot by spectrophotometric method.

Assay [1] deals with T2, Ribonuclease pancreatic (Homo sapiens) (UniProt P07998).
T2 sequence (whole entry): T1 sequence (P07998 whole entry)
The experiment in a line: Inhibition of RNase A assessed as degradation of tRNA by agarose gel assay.

The target of assay [2] is T2, Ribonuclease pancreatic (Homo sapiens). The experiment in a line: Inhibition of RNase A at 1.5 mM by precipitation assay.

For the compound `Cc1cn([C@H]2C[C@H](NC(=O)CC(=O)O)[C@@H](CO)O2)c(=O)[nH]c1=O`, the pKi on Ribonuclease pancreatic was 3.42.

On to `Cc1cn([C@H]2C[C@H](NC(=O)CCC(=O)O)[C@@H](CO)O2)c(=O)[nH]c1=O`, for which the pKi at Ribonuclease pancreatic was 3.04. Compared with the last compound, the pKi is 0.38 log units lower.

`Cc1cn([C@H]2C[C@H](NC(=O)C(=O)O)[C@@H](CO)O2)c(=O)[nH]c1=O` had a negative-log Ki (pKi) on Ribonuclease pancreatic of 3.88. Also, the result in assay [1] was Active. Further, the inhibition entry in assay [2] was “Active”.
